Laboratory results as given in patent publication US8609836B2, “4-aryl-2-anilino-pyrimidines” (Janssen Pharmaceutica NV, priority 2008, dated 2013).

Columns and labels:
PLK4 (h) = PLK4 (h) (Homo sapiens, UniProt O00444); assay: PLK-4 human kinase inhibition, scintillation proximity assay (SPA); assay type: biochemical; settings: read-out: PLK4 pIC50 (converted)
GSK3β (h) = GSK3β (h) (Homo sapiens, UniProt P49841); assay: GSK-3β human kinase inhibition, SPA; assay type: biochemical; settings: read-out: GSK3b pIC50 (converted)
Procedure, shortened: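 Scintillation proximity assay: GSK3β (1 μg/ml) with 1 μM biotinylated peptide, 1 μM ATP plus [γ-33P]ATP in Tris pH 7.4, MgCl2, DTT. 60 min at room temperature, stopped with EDTA and streptavidin PVT beads; phosphorylation read by Leadseeker imaging.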

MDA-MB-231 = assay: Cellular proliferation assay (Alamar blue), MDA-MB-231; assay type: cell-based; settings: Homo sapiens, 10% FCS, 72 hours with compound, Alamar blue 24 h, read-out: MDA/MB231 (cellular proliferation assay, Table 4) (converted)
Procedure, shortened: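 24 h seeding without compound, 10% FCS, 37° C/5% CO2; 72 h compound; Alamar blue (resazurin 9 μg/ml, ferro-/ferricyanide 90 μM) 4 h HCT-116, 6 h U87-MG, 24 h A2780/MDA-MB-231; fluorescence 544/590 nm vs control cells.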

PLK3 (h) = PLK3 (h) (Homo sapiens, UniProt Q9H4B4); assay: PLK3 human kinase inhibition, SPA; assay type: biochemical; settings: read-out: PLK3 pIC50 (converted)
Procedure, shortened: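 SPA: PLK3 (h) at 30 μg/ml with 2 μM biotinylated peptide, 0.1 μM ATP plus 2 nM [γ-33P]ATP in 50 mM Hepes pH 8.0, 2 mM MnCl2 and 1 mM DTT. Incubated 20 min at room temperature, then stopped with EDTA and streptavidin PVT beads. Scintillation imaged on Leadseeker.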

Sequence of PLK4 (h) (O00444 whole entry): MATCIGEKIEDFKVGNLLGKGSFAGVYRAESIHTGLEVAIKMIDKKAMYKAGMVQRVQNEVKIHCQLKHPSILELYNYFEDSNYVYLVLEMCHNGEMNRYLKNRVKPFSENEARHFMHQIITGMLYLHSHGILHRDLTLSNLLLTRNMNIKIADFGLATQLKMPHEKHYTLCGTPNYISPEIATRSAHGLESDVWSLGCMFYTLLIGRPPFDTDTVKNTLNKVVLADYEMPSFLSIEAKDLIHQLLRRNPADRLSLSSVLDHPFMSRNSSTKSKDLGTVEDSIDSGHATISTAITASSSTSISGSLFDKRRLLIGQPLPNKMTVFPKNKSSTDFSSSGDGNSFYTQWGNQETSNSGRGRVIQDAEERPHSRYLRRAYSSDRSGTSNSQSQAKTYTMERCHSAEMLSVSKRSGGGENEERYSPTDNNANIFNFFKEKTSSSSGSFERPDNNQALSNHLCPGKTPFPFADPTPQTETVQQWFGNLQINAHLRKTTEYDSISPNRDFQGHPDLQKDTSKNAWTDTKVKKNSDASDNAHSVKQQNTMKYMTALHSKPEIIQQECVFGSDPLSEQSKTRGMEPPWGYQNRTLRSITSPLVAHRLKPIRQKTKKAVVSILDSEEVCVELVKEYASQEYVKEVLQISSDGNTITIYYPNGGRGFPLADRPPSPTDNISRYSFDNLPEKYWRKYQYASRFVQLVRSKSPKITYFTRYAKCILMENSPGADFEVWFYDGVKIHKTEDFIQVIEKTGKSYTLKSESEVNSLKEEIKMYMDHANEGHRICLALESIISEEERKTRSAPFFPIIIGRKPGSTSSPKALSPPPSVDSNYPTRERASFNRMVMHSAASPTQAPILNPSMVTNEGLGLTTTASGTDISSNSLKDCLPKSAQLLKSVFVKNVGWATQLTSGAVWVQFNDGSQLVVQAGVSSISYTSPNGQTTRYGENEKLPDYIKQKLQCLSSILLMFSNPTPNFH
Sequence of GSK3β (h) (P49841 whole entry): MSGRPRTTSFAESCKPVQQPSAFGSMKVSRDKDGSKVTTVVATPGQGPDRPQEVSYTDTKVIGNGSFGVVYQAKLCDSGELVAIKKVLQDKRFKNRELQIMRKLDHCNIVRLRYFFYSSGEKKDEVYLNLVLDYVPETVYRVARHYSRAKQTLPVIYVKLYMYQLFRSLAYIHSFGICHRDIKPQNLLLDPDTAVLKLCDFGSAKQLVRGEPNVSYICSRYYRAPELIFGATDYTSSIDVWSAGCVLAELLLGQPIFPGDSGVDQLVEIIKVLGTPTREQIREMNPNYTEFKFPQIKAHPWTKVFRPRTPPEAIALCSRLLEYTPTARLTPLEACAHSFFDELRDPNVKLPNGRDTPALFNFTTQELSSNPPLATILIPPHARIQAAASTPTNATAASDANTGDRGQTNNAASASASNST
Sequence of PLK3 (h) (Q9H4B4 whole entry): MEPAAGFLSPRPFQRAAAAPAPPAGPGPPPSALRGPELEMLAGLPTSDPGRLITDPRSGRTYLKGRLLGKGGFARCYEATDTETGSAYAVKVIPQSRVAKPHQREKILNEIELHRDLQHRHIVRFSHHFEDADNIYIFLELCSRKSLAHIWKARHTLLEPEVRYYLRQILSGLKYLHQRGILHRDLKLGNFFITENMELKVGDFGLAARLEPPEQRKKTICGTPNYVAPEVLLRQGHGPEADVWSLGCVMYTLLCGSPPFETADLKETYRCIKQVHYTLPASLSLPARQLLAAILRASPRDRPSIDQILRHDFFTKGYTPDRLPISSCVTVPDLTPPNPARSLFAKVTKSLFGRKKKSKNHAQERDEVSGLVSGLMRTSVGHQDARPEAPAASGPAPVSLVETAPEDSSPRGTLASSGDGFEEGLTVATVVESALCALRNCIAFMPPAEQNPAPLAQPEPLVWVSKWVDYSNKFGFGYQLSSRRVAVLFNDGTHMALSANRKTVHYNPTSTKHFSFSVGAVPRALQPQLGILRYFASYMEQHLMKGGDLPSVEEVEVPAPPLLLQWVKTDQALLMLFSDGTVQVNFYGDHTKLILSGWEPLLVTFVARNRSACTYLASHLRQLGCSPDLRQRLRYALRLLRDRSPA

Row | melting point [°C] | Compound | IC50 (PLK4 (h)) [µM] | IC50 (GSK3β (h)) [µM] | IC50 (MDA-MB-231) [µM] | IC50 (PLK3 (h)) [µM]
1 | 253.6 to 254.9 | O=C1NCCCc2cc(ccn2)-c2ccnc(n2)Nc2cccc(c2)CN[C@H]1CO [Compound 19] | 1.2 | 0.0372 | 6.17 | > 10
2 | 243.2 to 244.3 | O=C1CN2CCN(CC2)Cc2cccc(c2)Nc2nccc(n2)-c2ccnc(c2)CCCN1 [Compound 21] | 4.27 | 0.0166 | > 10 | > 10
3 |  | CN1CCCNC(=O)[C@H](CO)NCc2cccc(c2)Nc2nccc(n2)-c2ccc(cc2)C1 [Compound 113] | 1.17 | > 10 | > 10 | > 10
4 |  | O=C1NCCNCc2ccc(cc2)-c2ccnc(n2)Nc2ccc(N3CCOCC3)c(c2)CN[C@H]1CO [Compound 115] | 1.35 | > 10 | > 10 | > 10
5 |  | COc1ccc2cc1CNCCNC(=O)CN1CCN(CC1)Cc1cc(ccc1N1CCOCC1)Nc1nccc-2n1 [Compound 126] | 0.813 | > 10 | > 10 | > 10
6 |  | COc1ccc2cc1CN(C)CCCNC(=O)CN1CCN(CC1)Cc1cc(cc(NC(C)C)c1)Nc1nccc-2n1 [Compound 130] | 1.23 | 5.37 | > 10 | > 10
7 |  | CN1CCNC(=O)CN2CCN(CC2)Cc2cc(cc(N3CCOCC3)c2)Nc2nccc(n2)-c2ccc(cc2)C1 [Compound 135] | 1.74 | 4.37 | > 10 | > 10
8 |  | COc1ccc2cc1CN(C)CCCNC(=O)CN1CCN(CC1)Cc1cc(cc(N3CCOCC3)c1)Nc1nccc-2n1 [Compound 141] | 3.02 | > 10 | > 10 | > 10
9 |  | COc1ccc2cc1CN(C)CCNC(=O)CN1CCN(CC1)Cc1cc(cc(NC(C)C)c1)Nc1nccc-2n1 [Compound 142] | 3.31 | > 10 | > 10 | > 10
10 |  | COc1ccc2cc1CN(C)CCCNC(=O)CN1CCN(CC1)Cc1cc(Br)cc(c1)Nc1nccc-2n1 [Compound 144] | 4.17 | > 10 | > 10 | > 10
11 |  | COc1ccc2cc1CN(C)CCNC(=O)CN1CCN(CC1)Cc1cc(cc(N3CCOCC3)c1)Nc1nccc-2n1 [Compound 145] | 4.37 | > 10 | > 10 | > 10
12 |  | COc1ccc2cc1CN(C)CCCNC(=O)CN1CCN(CC1)Cc1cccc(c1)Nc1nccc-2n1 [Compound 146] | 6.76 | > 10 | > 10 | > 10
13 |  | COc1ccc2cc1CN(C)CCNC(=O)CN1CCN(CC1)Cc1cccc(c1)Nc1nccc-2n1 [Compound 147] | > 10 | > 10 | > 10 | > 10
14 |  | CC(C)Nc1cc2cc(c1)Nc1nccc(n1)-c1ccc(cc1)CN(C)CCNC(=O)[C@@H]1CCCN1C2 [Compound 153] | 0.776 | 3.24 | > 10 | > 10
15 |  | CN1CCNC(=O)[C@@H]2CCCN2Cc2cc(Br)cc(c2)Nc2nccc(n2)-c2ccc(cc2)C1 [Compound 155] | 0.832 | 2.34 | > 10 | > 10
16 |  | O=C1NCCNc2cc(ccn2)-c2ccnc(n2)Nc2ccc(N3CCOCC3)c(c2)CN2CCCC12 (centres unmarked) [Compound 161] | 1.58 | 0.182 | > 10 | > 10
17 |  | COc1ccc2cc1CN(C)CCCNC(=O)[C@@H]1CCCN1Cc1cc(cc(NC(C)C)c1)Nc1nccc-2n1 [Compound 164] | 2.63 | > 10 | > 10 | > 10
18 |  | O=C1NCCCNCc2ccc(cc2)-c2ccnc(n2)Nc2ccc(N3CCOCC3)c(c2)CN2C[C@H](O)C[C@@H]12 [Compound 169] | 3.89 | > 10 | > 10 | > 10
19 |  | CN1CCCNC(=O)[C@@H]2CCCN2Cc2cccc(c2)Nc2nccc(n2)-c2ccc(cc2)C1 [Compound 173] | 6.17 | > 10 | > 10 | > 10
20 |  | COc1ccc2cc1CN(C)CCNC(=O)[C@@H]1CCCN1Cc1cccc(c1)Nc1nccc-2n1 [Compound 175] | 8.51 | > 10 | > 10 | > 10
21 |  | COc1ccc2cc1CNCCNC(=O)[C@@H]1C[C@@H](O)CN1Cc1cc(ccc1N1CCOCC1)Nc1nccc-2n1 [Compound 177] | > 10 | > 10 | > 10 | > 10
22 |  | COc1ccc2cc1CNCCNC(=O)[C@@H]1CCCN1Cc1cc(ccc1N1CCOCC1)Nc1nccc-2n1 [Compound 178] | > 10 | > 10 | > 10 | > 10
23 |  | COc1ccc2cc1CN(C)CCCNC(=O)[C@@H]1CCCN1Cc1cc(cc(N3CCOCC3)c1)Nc1nccc-2n1 [Compound 179] | > 10 | > 10 | > 10 | > 10
24 |  | COc1ccc2cc1CN(C)CCCNC(=O)[C@@H]1CCCN1Cc1cccc(c1)Nc1nccc-2n1 [Compound 180] | > 10 | > 10 | > 10 | > 10
